{"source": "paper PMC5513211", "about": "“PA-6 inhibits inward rectifier currents carried by V93I and D172N gain-of-function KIR2.1 channels, but increases channel protein expression” (Journal of Biomedical Science, 2017)", "origin": "cited, not measured here", "key": {"WT KIR2.1": {"tested_on": "WT KIR2.1", "details": "read-out: IC50 (sensitivity for chloroquine); whole cell mode; cited from earlier work"}, "D172N KIR2.1": {"tested_on": "D172N KIR2.1", "details": "read-out: IC50 (sensitivity for chloroquine); whole cell mode; cited from earlier work"}, "[1]": {"tested_on": "Kv11.1 (hERG) channel, WT and N558K", "details": "N558K less sensitive than WT; cited from earlier work"}, "Kv7.1 channel, V307L": {"tested_on": "Kv7.1 channel, V307L", "details": "cited from earlier work"}}, "data": [{"compound": "CCN(CC)CCCC(C)Nc1ccnc2cc(Cl)ccc12", "note": "(centres unmarked) [chloroquine]", "values": [{"measurement": "IC50", "setting": "WT KIR2.1", "value": "1400 to 2400", "unit": "nM"}, {"measurement": "IC50", "setting": "D172N KIR2.1", "value": "1200 to 3300", "unit": "nM"}]}, {"compound": "CC[C@H]1CN2CC[C@H]1C[C@@H]2[C@@H](O)c1ccnc2ccc(OC)cc12", "note": "[hydroquinidine]", "values": [{"measurement": "Difference in IC50 values for WT and N558K Kv11.1 channels", "setting": "[1]", "value": 3.5, "unit": "fold"}]}, {"compound": "OC(c1cc(C(F)(F)F)nc2c(C(F)(F)F)cccc12)C1CCCCN1", "note": "(centres unmarked) [mefloquine]", "values": [{"measurement": "Sensitivity of V307L Kv7.1 versus WT variant", "setting": "Kv7.1 channel, V307L", "value": "equally sensitive"}]}, {"compound": "CCS(=O)(=O)N(C)[C@H]1c2cc(C#N)ccc2OC(C)(C)[C@@H]1O", "note": "[Chromanol293B]", "values": [{"measurement": "Increase of IC50 value by V307L mutation", "setting": "Kv7.1 channel, V307L; V307L versus WT Kv7.1", "value": 7, "unit": "fold"}]}]}
